Measurements reported in article PMC8213057, “Targeting ALK2: An Open Science Approach to Developing Therapeutics for the Treatment of Diffuse Intrinsic Pontine Glioma” (Journal of Medicinal Chemistry, 2020).

Legend:
CAMKK2 = CAMKK2 (Homo sapiens, UniProt Q96RR4); assay: biochemical; details: read-out: % enzyme activity, 1 μM; Run 1, Run 2
MNK2 = MNK2 (Homo sapiens, UniProt Q9HBH9); assay: biochemical; details: read-out: % enzyme activity, 1 μM; Run 1, Run 2
EPHA1 = target: T1, EPHA1 (Homo sapiens, UniProt P21709); assay: biochemical; details: read-out: % enzyme activity, 1 μM; Run 1, Run 2
T1 sequence (P21709 26-976): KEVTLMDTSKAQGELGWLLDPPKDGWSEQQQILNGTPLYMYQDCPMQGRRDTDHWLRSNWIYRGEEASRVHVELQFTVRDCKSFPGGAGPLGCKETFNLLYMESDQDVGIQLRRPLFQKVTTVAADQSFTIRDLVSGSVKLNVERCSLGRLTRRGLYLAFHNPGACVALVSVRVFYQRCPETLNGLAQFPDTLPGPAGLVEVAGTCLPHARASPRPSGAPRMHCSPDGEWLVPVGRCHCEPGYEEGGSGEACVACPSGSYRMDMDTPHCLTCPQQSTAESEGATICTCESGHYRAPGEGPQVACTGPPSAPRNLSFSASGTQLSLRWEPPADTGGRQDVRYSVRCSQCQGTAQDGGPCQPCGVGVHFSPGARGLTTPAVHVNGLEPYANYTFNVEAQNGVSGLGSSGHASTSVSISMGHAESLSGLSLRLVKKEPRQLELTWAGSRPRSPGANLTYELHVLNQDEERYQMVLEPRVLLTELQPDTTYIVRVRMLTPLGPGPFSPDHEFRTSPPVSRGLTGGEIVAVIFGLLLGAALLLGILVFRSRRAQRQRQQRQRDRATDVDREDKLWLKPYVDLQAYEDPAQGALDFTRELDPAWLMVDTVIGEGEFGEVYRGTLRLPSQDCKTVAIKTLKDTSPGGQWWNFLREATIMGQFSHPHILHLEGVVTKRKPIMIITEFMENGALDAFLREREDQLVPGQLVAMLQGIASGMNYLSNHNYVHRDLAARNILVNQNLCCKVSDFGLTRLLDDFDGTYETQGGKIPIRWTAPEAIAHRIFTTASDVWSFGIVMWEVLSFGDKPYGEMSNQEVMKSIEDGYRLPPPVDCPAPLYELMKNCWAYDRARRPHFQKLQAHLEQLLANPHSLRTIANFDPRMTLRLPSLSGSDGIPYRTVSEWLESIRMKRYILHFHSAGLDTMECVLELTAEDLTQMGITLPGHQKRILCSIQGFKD

STK39/STLK3 = STK39/STLK3 (Homo sapiens, UniProt Q9UEW8); assay: biochemical; details: read-out: % enzyme activity, 1 μM; Run 1, Run 2
Aurora A = target: T2, Aurora A (Homo sapiens, UniProt O14965); assay: biochemical; details: read-out: % enzyme activity, 1 μM; Run 1, Run 2
T2 sequence (O14965 1-403): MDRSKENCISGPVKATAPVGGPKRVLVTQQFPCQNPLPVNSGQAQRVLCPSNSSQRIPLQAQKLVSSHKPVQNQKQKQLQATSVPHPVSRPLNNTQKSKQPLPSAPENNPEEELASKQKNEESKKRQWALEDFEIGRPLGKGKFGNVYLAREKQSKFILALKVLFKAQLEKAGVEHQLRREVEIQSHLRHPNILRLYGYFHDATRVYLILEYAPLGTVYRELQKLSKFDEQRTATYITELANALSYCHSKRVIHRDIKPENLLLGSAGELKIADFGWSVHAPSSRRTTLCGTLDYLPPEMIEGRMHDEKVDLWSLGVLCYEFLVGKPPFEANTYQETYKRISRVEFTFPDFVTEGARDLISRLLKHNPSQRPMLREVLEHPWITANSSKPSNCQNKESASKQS

ULK2 = target: T3, ULK2 (Homo sapiens, UniProt Q8IYT8); details: 1 μM; Run 1, Run 2
T3 sequence (Q8IYT8 1-1036): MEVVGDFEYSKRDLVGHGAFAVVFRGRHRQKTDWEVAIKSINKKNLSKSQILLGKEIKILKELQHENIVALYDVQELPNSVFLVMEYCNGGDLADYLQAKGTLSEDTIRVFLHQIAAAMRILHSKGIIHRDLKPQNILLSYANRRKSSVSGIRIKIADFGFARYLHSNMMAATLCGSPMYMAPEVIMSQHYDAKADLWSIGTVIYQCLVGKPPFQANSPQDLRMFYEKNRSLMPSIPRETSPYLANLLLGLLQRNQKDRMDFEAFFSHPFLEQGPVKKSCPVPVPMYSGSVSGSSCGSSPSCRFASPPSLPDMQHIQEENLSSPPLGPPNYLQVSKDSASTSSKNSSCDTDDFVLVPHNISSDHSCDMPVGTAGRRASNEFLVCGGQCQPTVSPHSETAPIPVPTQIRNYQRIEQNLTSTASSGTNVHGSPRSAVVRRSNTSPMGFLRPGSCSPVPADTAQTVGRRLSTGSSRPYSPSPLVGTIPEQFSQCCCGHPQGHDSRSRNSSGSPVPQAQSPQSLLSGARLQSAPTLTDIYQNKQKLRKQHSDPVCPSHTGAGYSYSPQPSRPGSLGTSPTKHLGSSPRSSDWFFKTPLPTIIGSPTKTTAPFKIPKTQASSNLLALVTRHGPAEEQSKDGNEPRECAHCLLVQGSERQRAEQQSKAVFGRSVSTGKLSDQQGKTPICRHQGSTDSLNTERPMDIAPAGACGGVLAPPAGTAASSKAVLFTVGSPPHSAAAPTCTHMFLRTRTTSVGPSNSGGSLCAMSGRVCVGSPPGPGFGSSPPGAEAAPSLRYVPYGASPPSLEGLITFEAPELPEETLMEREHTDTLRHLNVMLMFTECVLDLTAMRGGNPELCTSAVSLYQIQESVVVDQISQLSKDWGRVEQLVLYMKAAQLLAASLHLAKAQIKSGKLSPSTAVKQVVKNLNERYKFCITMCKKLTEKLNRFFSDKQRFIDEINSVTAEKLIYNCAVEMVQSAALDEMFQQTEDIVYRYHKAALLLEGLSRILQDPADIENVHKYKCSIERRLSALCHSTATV

Sequence of MNK2 (Q9HBH9 whole entry): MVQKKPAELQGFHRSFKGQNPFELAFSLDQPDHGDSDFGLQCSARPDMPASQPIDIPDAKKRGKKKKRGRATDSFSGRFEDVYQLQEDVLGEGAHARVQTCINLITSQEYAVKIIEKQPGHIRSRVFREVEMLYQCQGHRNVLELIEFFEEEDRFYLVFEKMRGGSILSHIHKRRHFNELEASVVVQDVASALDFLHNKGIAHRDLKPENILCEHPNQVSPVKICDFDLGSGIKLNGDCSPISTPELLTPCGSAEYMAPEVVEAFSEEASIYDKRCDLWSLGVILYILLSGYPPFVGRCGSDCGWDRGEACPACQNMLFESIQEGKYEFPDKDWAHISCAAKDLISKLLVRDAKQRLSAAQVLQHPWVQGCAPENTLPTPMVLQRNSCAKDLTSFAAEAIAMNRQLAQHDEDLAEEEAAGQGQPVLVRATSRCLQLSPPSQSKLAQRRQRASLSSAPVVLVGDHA
Sequence of CAMKK2 (Q96RR4 whole entry): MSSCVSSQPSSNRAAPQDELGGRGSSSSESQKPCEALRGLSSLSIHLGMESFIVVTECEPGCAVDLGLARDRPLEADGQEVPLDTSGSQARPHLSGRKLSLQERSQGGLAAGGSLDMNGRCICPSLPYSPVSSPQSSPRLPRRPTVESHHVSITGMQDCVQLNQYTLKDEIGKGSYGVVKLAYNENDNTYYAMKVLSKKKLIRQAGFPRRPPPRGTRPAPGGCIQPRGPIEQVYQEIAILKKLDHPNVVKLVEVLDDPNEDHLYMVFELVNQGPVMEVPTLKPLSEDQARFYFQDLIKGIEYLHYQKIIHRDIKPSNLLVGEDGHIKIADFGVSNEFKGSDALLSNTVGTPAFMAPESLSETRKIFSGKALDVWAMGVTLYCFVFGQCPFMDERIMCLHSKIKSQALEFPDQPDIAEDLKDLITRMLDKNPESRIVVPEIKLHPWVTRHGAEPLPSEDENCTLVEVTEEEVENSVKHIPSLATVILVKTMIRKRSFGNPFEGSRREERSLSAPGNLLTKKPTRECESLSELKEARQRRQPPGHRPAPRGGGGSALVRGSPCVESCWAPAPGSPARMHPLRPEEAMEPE

| Structure (SMILES) | remaining activity at 1 µM (CAMKK2) [%] | remaining activity at 1 µM (MNK2) [%] | remaining activity at 1 µM (EPHA1) [%] | remaining activity at 1 µM (STK39/STLK3) [%] | remaining activity at 1 µM (Aurora A) [%] | % enzyme activity (ULK2) [%] |
| --- | --- | --- | --- | --- | --- | --- |
| COc1cc(-c2cncc(-c3ccc(N4CCN(C)CC4)cc3)c2C)cc(F)c1C(N)=O [Compound 26a, 2-Fluoro-6-methoxy-4-(4-methyl-5-(4-(4-methylpiperazin-1-yl)phenyl)pyridin-3-yl)benzamide] | 71.7 | 48.2 | 97.5 | 89.1 | 101 | 73.24 |
| COc1cc(-c2cncc(-c3ccc(N4C[C@@H](C)N(C)[C@@H](C)C4)cc3)c2C)cc(F)c1C(N)=O [Compound 26c, 2-Fluoro-6-methoxy-4-(4-methyl-5-(4-((3R,5S)-3,4,5-trimethylpiperazin-1-yl)phenyl)pyridin-3-yl)benzamide] | 76.4 | 70.8 | 93.3 | 95.7 | 102 | 84.46 |
